Tests used:
[1] = system: PIL5 cells; assay: Luciferase gene reporter assay for Type I interferon: IFN sensitivity of PIL5 cells treated with anti-mitotic agent, frozen and thawed; type: cell-based, human
Method: • 1. Remove protective cover from the sample preparation micro-plate (Plate A). • 2. Add 100 μl of the diluent (RPMI 1640 medium without serum) to wells A1 through A6 and B1 through B6 of the sample preparation plate (Plate A). • 3. Add 100 μl of the interferon (IFN) reference preparation to wells A1 and B1 of Plate A containing 100 μl of diluent. • 4. Carry out serial two-fold dilutions of the IFN reference preparation in Plate A from wells A1 and B1 through wells A6 and B6 using a multi-channel micro-pipette. Sample preparation • 1. Add 100 μl of the diluent to the wells of the sample preparation plate (Plate A) where required. • 2. Dilute samples to be tested if the estimated IFN titer of the samples is greater than 100 IU/ml. • 3. Dilute samples appropriately in the sample preparation micro-plate (Plate A) Assay Procedure • 1. Rapidly thaw the 96-well PIL5 assay micro-plate (Plate B) on a flat surface with the cover uppermost. A water-bath set at 37° C. can be used for convenience. • 2. Dry protective cover with a paper hand towel, taking care to maintain the label uppermost. • 3. Carefully remove protective cover from the PIL5 assay micro-plate (Plate B) while maintaining the cover uppermost. • 4. Add 75 μl of each of the serial two-fold dilutions of the reference preparation to wells A1 and B1 through wells A6 and B6 of the PIL5 assay micro-plate (Plate B) using a multi-channel micro-pipette. • 5. Add 75 μl of each undiluted or appropriately diluted sample to the PIL assay micro-plate […]. • 6. Incubate the PIL5 assay micro-plate (Plate B) overnight at 37° C. in an atmosphere of 5% CO2 in air. A CO2 incubator can be used for convenience. • 7. […] Determine the luminescence of the samples using a micro-plate luminometer (LUMICOUNT, Packard). […] Plot standard curve from the mean of the luminescence readings for each dilution of the IFN reference preparation calibrated against the NIH international reference standard for HuIFN-α (G-023-901-527) using Microsoft EXCEL. • 2. […]

[2] = system: PIL5 cells; assay: Prevention of cell replication of PIL5 cells by anti-mitotic and pro-apoptotic agent; type: cell-based, human; details: at the doses tested
Method: Studies on the effects of a variety of parameters, i.e., concentration of vinblastine, time of treatment with vinblastine, fetal bovine serum (FBS) concentration, glycerol concentration in the presence or absence of DMSO, SMSO concentration, cell density, on interferon sensitivity of frozen cells were conducted to determine optimal conditions. It may not be apparent from the results shown in FIG. 12 why vinblastine instead of 5-FU was chosen as the more preferred anti-mitotic and pro-apoptotic agent for treatment of PIL5 cells prior to freezing.

Compound: C[S+](C)[O-] [DMSO, dimethyl sulfoxide]
- protection of cells frozen at −20° C. and effect on sensitivity to IFN ([1]; no special freezing or thawing techniques, FIG. 11): without adversely affecting their sensitivity to IFN

Compound: CC[C@]1(O)C[C@@H]2CN(CCc3c([nH]c4ccccc34)[C@@](C(=O)OC)(c3cc4c(cc3OC)N(C)[C@H]3[C@@](O)(C(=O)OC)[C@H](OC(C)=O)[C@]5(CC)C=CCN6CC[C@]43[C@@H]65)C2)C1 [vinblastine]
- IFN sensitivity of PIL5 cells after treatment and freezing ([1]; 100 μM vinblastine, 1.0 hour at 37° C., one month at −20° C., FIG. 11): retain full IFN sensitivity

Compound: O=c1[nH]cc(F)c(=O)[nH]1 [5-FU, 5-fluorouracil]
- maintaining interferon sensitivity of frozen PIL5 cells ([1]; treatment prior to freezing, compared with vinblastine, FIG. 12): superior to vinblastine
- preventing cell replication [2]: not found to be sufficiently effective

Reference: patent publication US9188580B2, “Gene reporter assay, kit, and cells for determining the presence and/or the level of a molecule that activates signal transduction activity of a cell surface protein” (LE CENTRE NATIONALE DE LA RECHERCHE SCIENTIFIQUE, priority 2002, dated 2015)
